Measured values as given in PubChem BioAssay AID1935 (Broad Institute, 2009).
Inconclusive results are not listed. The source made the active and inactive calls. The rule behind the calls is not given here.

Tested on: BJ-TERT-LT-ST fibroblast viability, ATP luminescence
Experiment: cytotoxicity toward BJ-TERT-LT-ST fibroblasts, dose response, cell-based, RAS-independent, luminescence (AID 1935)

CCc1ccc(/C=C2/SC(=S)N(CCC(=O)NCCCN3CCOCC3)C2=O)cc1
EC50: > 15 µM (inactive)

CCc1ccc(/C=C2\SC(=S)N(CCC(=O)NCCCN3CCOCC3)C2=O)cc1
EC50: > 15 µM (inactive)
